The record followed here is US7169290B1, “Biosensor for metal analysis and speciation” (Battelle Energy Alliance, LLC, priority 2002, dated 2007).

Holding throughout (format): biochemical
Experiment [1] concerns the target T1, purified A. niger NR (E.C. 1.6.6.2) (Aspergillus niger, UniProt P36858).
T1 construct: purchased Sigma-Aldrich Co. (St. Louis, Mo.)
T1 sequence (P36858 1-867): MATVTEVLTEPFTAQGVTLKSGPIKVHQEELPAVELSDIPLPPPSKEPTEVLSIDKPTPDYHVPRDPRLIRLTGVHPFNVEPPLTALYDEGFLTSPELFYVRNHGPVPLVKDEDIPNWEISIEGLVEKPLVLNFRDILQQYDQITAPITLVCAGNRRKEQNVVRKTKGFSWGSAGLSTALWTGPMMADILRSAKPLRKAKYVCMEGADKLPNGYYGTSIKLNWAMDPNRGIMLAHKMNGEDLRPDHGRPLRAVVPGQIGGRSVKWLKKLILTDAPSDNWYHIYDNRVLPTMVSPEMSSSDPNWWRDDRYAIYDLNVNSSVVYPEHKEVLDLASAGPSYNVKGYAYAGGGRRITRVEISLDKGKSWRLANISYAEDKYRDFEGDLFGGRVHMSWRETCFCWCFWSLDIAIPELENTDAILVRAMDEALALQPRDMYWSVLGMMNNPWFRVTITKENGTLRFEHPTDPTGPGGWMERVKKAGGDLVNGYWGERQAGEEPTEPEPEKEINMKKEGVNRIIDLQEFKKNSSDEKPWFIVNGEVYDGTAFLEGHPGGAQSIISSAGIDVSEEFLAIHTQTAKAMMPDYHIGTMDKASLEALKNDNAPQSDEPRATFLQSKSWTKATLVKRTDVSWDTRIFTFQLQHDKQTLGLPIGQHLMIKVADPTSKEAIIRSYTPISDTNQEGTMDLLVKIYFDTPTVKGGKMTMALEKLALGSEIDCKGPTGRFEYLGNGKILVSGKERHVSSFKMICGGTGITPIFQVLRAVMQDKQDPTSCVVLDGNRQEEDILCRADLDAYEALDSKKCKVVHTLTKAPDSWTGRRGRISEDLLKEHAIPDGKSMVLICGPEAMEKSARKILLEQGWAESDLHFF
Nature of the experiment: Evaluation of buffer-metal interactions, NR activity by rate of NADPH disappearance. The conditions noted are these: 5 μM metal; for NR sensitivity to metal in TRIS buffered system: 30 mM TRIS buffer pH 7.5; for NR sensitivity to metal in phosphate buffered system: 30 mM phosphate buffer pH 7.5. How it is done: To determine the buffer that would provide minimal metal-buffer complexation and, therefore, allow maximal metal inhibition to NR activity, an analysis of various pH buffers was performed. HEPES, MOPS, PIPES, phosphate, and TRIS buffers were individually evaluated in the presence of NR and 5 μM of each of the following metals: Cr^3+, Cr^6+, Cd^2+, Cu^2+, Pb^2+, and Zn^2+. An unbuffered assay system was used to establish a baseline of metal-induced enzyme inhibition. Reagents were added in the following order: the metal stock solution, the buffer solution, KNO3 solution, NR, and NADPH.
For these buffer experiments, NR and NADPH solutions were prepared in water rather than in the 30 mM MOPS, as was done for all other experiments. The final concentration of all reagents was 30 mM of each respective buffer, 5 μM metal, 50 μg ml^−1 NR, 10 mM KNO3 and 0.1 mM NADPH. NADPH addition initiated the reaction but NR activity was determined following the method described in Gilliam et al., Anal. Biochem., 212:359–365 (1993), which is based on the rate of NADPH disappearance. The presence of NADPH, which has a peak absorbance at 340 nm, was monitored with respect to time for 3 minutes using a Hewlett Packard 8452A UV-Vis spectrophotometer. NR activity was then reported as a ratio of the change in absorbance of a metal-containing sample to the change in absorbance of a positive (metal-free) control. The inherent instability of NADPH and the potential for oxidation in the presence of the metals used in these experiments was accounted for in negative controls, which contained all reagents but NR.
To select a buffering system that allowed for maximum inhibition of the enzyme by metal ions, several common buffers, HEPES, MOPS, PIPES, Phosphate and TRIS were tested in metal inhibition assays. The buffers used in the assay affected the sensitivity of NR to the metal ions examined due to some of the buffers' ability to chelate metal ions, as shown in FIG. 1. NR activity is reported as the percent of a metal free control. Values represent the averages of five replicate experiments. NR activity assays were also run in an unbuffered water system to establish a baseline level of metal sensitivity and to determine if the buffers were shielding NR from inhibition by any of the metals that were examined. An unbuffered assay system was not selected for further experiments because the pH was not uniformly maintained for the various conditions under which NR activity would be measured. […] Therefore, MOPS was chosen for use in subsequent metal inhibition assays over a wider range of metal concentrations. The phosphate and TRIS buffers appeared to selectively protect NR against different metals. […] The opposite was found when the assay was conducted in a TRIS buffered system where NR was insensitive to Cu^2+ ions and was inhibited by Cd^2+, Cr^6+, Pb^2+, and Zn^2+.

Experiment [2] deals with T1, purified A. niger NR (E.C. 1.6.6.2). Nature of the experiment: Regeneration of metal inactivated NR activity by 10 mM EDTA. The conditions noted are these: for NR activity after EDTA treatment, % of control: 100 μM metal five minutes, then 10 mM EDTA; for restoration of NR activity by EDTA after metal exposure / NR activity before EDTA treatment, % of control: 100 μM metal; for restoration of NR activity by EDTA after metal exposure: 10 mM EDTA; for NR activity before EDTA treatment, % of control: five minutes, 25° C., 10 mM KNO3. How it is done: To determine whether inhibition caused by exposure to the metals could be reversed by the addition of EDTA, NR was exposed to 100 μM of the following metals: Cd^2+, Cr^3+, Cu^2+, Pb^2+ and Zn^2+ for five minutes in a 96-well plate and incubated at 25° C. with 10 mM KNO3. After five minutes, 10 mM EDTA was added and solutions were shaken for 10 seconds. NADPH was added to sets of positive controls, negative controls, and metal/NR and EDTA for evaluation of NR activity both immediately after EDTA addition and 30 minutes after EDTA addition. Enzyme activity was measured by determining the amount of nitrite produced and reported as a percent of a positive control.

The target is the same in experiment [3]. Nature of the experiment: Metal inhibition of NR activity, colorimetric nitrite production (Griess reaction), MOPS buffer. The conditions noted are these: for enzyme inhibition: 1 μM metal ion; for enzyme inhibition / span of concentrations over which NR activity is inhibited: MOPS buffer; for span of concentrations over which NR activity is inhibited: no chelating agent. How it is done: NR activity was measured using the Griess reaction in which nitrite is colorimetrically determined by diazotization and diazomium coupling reactions of nitrite with sulfanilamide and N-(1-naphthyl)ethylenediamine. Measurements were conducted in 96-well microtiter plates, allowing multiple reactions to be quantified simultaneously. The assay followed the method as described in R. Kneer et al., Phytochemistry, 31:2663–2667 (1992), with modifications including the adaptation for use in a 96-well plate format, the reduction of the assay time to 5 minutes, and the substitution of a 12.5 mM MOPS buffer instead of the 33 mM TRIS buffer used.
This was followed by the addition of 40 μl 0.2% (wt.) N-(1-naphthyl)ethylenediamine. The absorbance of the resulting pink solution read at 540 nm was recorded after ten minutes using a microplate reader (HTS7000 Plus Bioassay Reader, Perkin Elmer, Conn.).
Negative controls containing all reagents except NR were run and analyzed for nitrite. An activity of 100% indicated the rate of nitrate conversion in the absence of Cr(III). Positive controls, which comprised no metal but comprised all other reagents, were also run. Additional controls comprising nitrite, NR and NADPH were run to rule out the possibility that NR reduced the nitrite.
NR activity is reported as a percentage of the experimentally measured activity of the positive (metal-free) control or as a ratio of the change in absorbance of a metal-containing sample to the change in absorbance of a positive (metal-free) control. An activity of 100% indicated the rate of nitrate conversion in the absence of the metal. Data points represent the averages of seven replicate experiments and error bars represent the standard deviation of those averages, unless otherwise stated.
NR, NADPH, and KNO3 were used in the same concentrations as in the metal-free NR and buffer evaluation assays. For metal-inhibition studies in the absence of a chelating agent, the appropriate concentration of metal stock solution was added to the NR and KNO3 solution. The mixture was allowed to incubate at 25° C. for five minutes prior to the addition of NADPH to allow adequate time for the metal and NR to interact. A 12.5 mM MOPS buffer solution was used to maintain the pH at 7.5. Final metal concentrations in the assay solution ranged from 0.01 μM to 1000 μM. Enzyme activity was determined as described above by the calorimetric quantification of nitrite production and reported as a percentage of the nitrite produced in a metal-free control.
The sensitivity of NR to Cr(III) was determined at concentrations ranging from 1 to 10 μM. […] To further determine the extent to which NR was sensitive to metals in aqueous samples, the activity of purified NR was evaluated in the presence of Cd^2+, Cu^2+, Cr^3+, Cr^6+, Ni^2+, Pb^2+, and Zn^2+ ions at concentrations ranging from 0.01 to 1000 μM.

For experiment [4] the target is unchanged. Nature of the experiment: EDTA and NTA chelation experiments, NR activity by nitrite production. The conditions noted are these: for effect of EDTA on the metal's ability to inhibit NR: EDTA 0.1 to 10 mM. How it is done:
To determine the ability of chelating agents to prevent NR inhibition, EDTA or NTA was added to the enzymatic assay. For the experiments in which either EDTA or NTA was used, the reagents were added in the following order: the appropriate metal solution, EDTA or NTA, NR, nitrate, and finally NADPH. To allow sufficient time for the metal and chelating agent to react, the metal and either EDTA or NTA were added together prior to the addition of NR. Final assay metal ion concentrations ranged from 0.01 to 1000 μM. EDTA and NTA had final concentrations of 0.1 mM, 1 mM and 10 mM. Final concentrations of NR, KNO3 and NADPH were as described above. NR activity was assayed by monitoring the production of nitrite, as described above.

Where [5] appears, read: 12.5 mM MOPS pH 7.5, no chelating agent.

Molecules are shown by their SMILES.

As for `[Cd+2]` [Cd^2+, cadmium], in experiment [1], the “NR sensitivity to metal in TRIS buffered system” value is listed as “inhibited” and the “NR sensitivity to metal in phosphate buffered system” value is recorded as “relatively insensitive”. In addition, in experiment [2], the “NR activity after EDTA treatment, % of control” value is reported as 28% ±; the “restoration of NR activity by EDTA after metal exposure” value (from here on “restoration of NR activity by EDTA”) is listed as “partially restored”; the “NR activity before EDTA treatment, % of control” value is 2.7% ±.
For the compound `[Cr+3]` [Cr^3+, chromium], in experiment [3], the enzyme inhibition worked out at 62% and the “span of concentrations over which NR activity is inhibited” value was “several orders of magnitude”. Further, in experiment [3] (setting [5]), the “metal concentration at which NR activity was substantially inhibited” value is “above 4 μM”. In addition, the “metal concentration at which NR activity was substantially inhibited” value in experiment [3] (12.5 mM MOPS pH 7.5, no chelating agent, listed as Cr^6+) was 1 µM. In experiment [1], the “NR sensitivity to metal in TRIS buffered system” value is listed as “inhibited” and the “NR sensitivity to metal in phosphate buffered system” value is given as “relatively insensitive”. Also, the “effect of NTA on the inhibitory effects of the metal” value in experiment [4] (1 mM NTA) is “did not affect”. In experiment [4] (10 mM EDTA), the “increase of the concentration range over which the metal inhibited NR” value was “two orders of magnitude” and the “metal concentration up to which EDTA protected NR activity” value is listed as “up to 100 μM”. The “protection of NR by NTA from exposure to the metal” value in experiment [4] (10 mM NTA) is recorded as “did not protect”. Moreover, in experiment [4] (listed as Cr(VI)), the “effect of EDTA on the metal's ability to inhibit NR” value was “unchanged”. For the same compound, the “effect of EDTA on the metal's ability to inhibit NR” value in experiment [4] (listed as Cr^6+) is listed as “virtually unaffected”. Besides, in experiment [4] (NTA added to assay), the “NTA concentration up to which the metal's inhibitory effects on NR activity were not affected” value is recorded as “up to 10 mM”. In addition, in experiment [2], the “NR activity after EDTA treatment, % of control” value is given as 4.3% ± 1.9%; the “restoration of NR activity by EDTA” value is listed as “unable to significantly restore”; the “NR activity before EDTA treatment, % of control” value is reported as 5.7% ± 10%.
As for `[Cu+2]` [Cu^2+, copper], in experiment [3], the enzyme inhibition came out at 76% and the “span of concentrations over which NR activity is inhibited” value is “several orders of magnitude”. In addition, the “metal concentration at which NR activity was substantially inhibited” value in experiment [3] (setting [5]) is 1 µM. For the same compound, in experiment [1], the “NR sensitivity to metal in TRIS buffered system” value is on record as “insensitive” and the “NR sensitivity to metal in phosphate buffered system” value is recorded as “inhibited”. In addition, in experiment [4] (10 mM NTA), the “metal concentrations over which NTA protected NR from metal induced inhibition” value is recorded as “up to 100 μM”. Besides, in experiment [2], the “NR activity after EDTA treatment, % of control” value is 5.1% ± 1.5%; the “restoration of NR activity by EDTA” value is recorded as “unable to significantly restore”; the “NR activity before EDTA treatment, % of control” value is reported as 1.0% ± 0.3%.
Turning to `[Ni+2]` [Ni^2+, nickel], in experiment [3] (1000 μM metal ion, 12.5 mM MOPS pH 7.5), the “NR activity retained, percent of original activity (metal free control)” value is listed as around 20%. The “metal concentration at which NR activity was inhibited / adversely affected” value in experiment [3] (setting [5]) is “over 100 μM”.
`[Pb+2]` [Pb^2+, lead]: in experiment [1], the “NR sensitivity to metal in TRIS buffered system” value is listed as “inhibited” and the “NR sensitivity to metal in phosphate buffered system” value was “relatively insensitive”. Further, in experiment [2], the “NR activity after EDTA treatment, % of control” value is listed as 40% ±; the “restoration of NR activity by EDTA” value was “partially restored”; the “NR activity before EDTA treatment, % of control” value is reported as 1.3% ±.
As for `[Zn+2]` [Zn^2+, zinc], in experiment [1], the “NR sensitivity to metal in TRIS buffered system” value is recorded as “inhibited” and the “NR sensitivity to metal in phosphate buffered system” value was “relatively insensitive”. Besides, in experiment [2], the “NR activity after EDTA treatment, % of control” value is 54% ±; the “restoration of NR activity by EDTA” value is “partially restored”; the “NR activity before EDTA treatment, % of control” value is given as 6.6% ±.
